These results are taken from PubChem BioAssay (NCI).

Among the test systems are TK-10 renal; EKVX NSCLC; SNB-19 CNS; NCI-H23 lung; RXF 393 renal; SF-295 CNS; HT29 colon; OVCAR-5 ovarian; SN12C renal; OVCAR-4 ovarian; SK-MEL-28 melanoma; HCC-2998 colon; OVCAR-3 ovarian; MALME-3M melanoma; PC-3 prostate; MDA-MB-435; T-47D breast; NCI/ADR-RES ovarian.
What all share (assay): NCI tumour cell line growth inhibition, 48 h

Molecules are shown by their SMILES. Several values for one entry are separate records, joined by “and”; a condition that tells them apart may be missing. Equal values may be shown once.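 Cultured in 96-well plates, cells were exposed to test compound for 48 hours across five concentrations. The concentration for full growth arrest is given as TGI.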

As for `Cc1nc2c(s/c(=N\N)n2-c2ccccc2)c(=O)n1C`, the TGI in the test on TK-10 renal, in the test on EKVX NSCLC, in the test on SNB-19 CNS, in the test on NCI-H23 lung, in the test on RXF 393 renal and in the test on SF-295 CNS was over 100 µM each time. The TGI in the test on HT29 colon, with OVCAR-5 ovarian, in the test on SN12C renal, in the test with OVCAR-4 ovarian, with SK-MEL-28 melanoma and with HCC-2998 colon was over 100 µM in each case.

Take `Cc1ccc(C(=O)C(C)N)cc1C` (stereo unspecified): the TGI in the test on TK-10 renal, with EKVX NSCLC, in the test on SNB-19 CNS, in the test on NCI-H23 lung, in the test with RXF 393 renal and in the test with SF-295 CNS was over 100 µM each time. Also, the TGI in the test on HT29 colon, with SN12C renal, in the test on OVCAR-3 ovarian, in the test on OVCAR-4 ovarian, in the test with SK-MEL-28 melanoma and in the test with HCC-2998 colon was over 100 µM in each case. This molecule also had a TGI in the test on MALME-3M melanoma of over 100 µM.

Regarding `CC1CC/C(=C\c2ccc(F)cc2)C2=C1C(c1ccc(F)cc1)n1c(s/c(=C\c3ccc(Cl)cc3)c1=O)=N2` (stereo unspecified), the TGI with TK-10 renal, in the test on EKVX NSCLC, in the test with SNB-19 CNS, in the test with RXF 393 renal, with HT29 colon and in the test with OVCAR-5 ovarian was over 100 µM in each case. The TGI in the test with SN12C renal, in the test with OVCAR-4 ovarian, with PC-3 prostate, in the test with SK-MEL-28 melanoma and in the test on MDA-MB-435 was over 100 µM in each case.

For `NCCSc1nc(N)c2ncn(C3OC(CO)C(O)C3O)c2n1` (stereo unspecified), the TGI with TK-10 renal, with SNB-19 CNS, with NCI-H23 lung, in the test on SF-295 CNS, with HT29 colon and with OVCAR-5 ovarian was over 100 µM each time. Also, the TGI in the test on SN12C renal, in the test on OVCAR-3 ovarian, in the test with OVCAR-4 ovarian, in the test with SK-MEL-28 melanoma, in the test on HCC-2998 colon and with MALME-3M melanoma was over 100 µM throughout.

With `CCN1CCC(O)(/C=C/c2ccc(Cl)cc2)C(C(=O)/C=C/c2ccc(Cl)cc2)C1` (stereo unspecified), the TGI with TK-10 renal is over 100 µM; in the test on EKVX NSCLC, over 100 µM; in the test on SNB-19 CNS, over 100 µM; in the test on NCI-H23 lung, 45.6 µM; with SF-295 CNS, 60.3 µM; in the test on HT29 colon, 42.8 µM. Also, the TGI is over 100 µM in the test with OVCAR-5 ovarian; 40.2 µM with OVCAR-3 ovarian; 96 µM with OVCAR-4 ovarian; 57 µM in the test on SK-MEL-28 melanoma; 32.8 µM in the test on HCC-2998 colon; over 100 µM in the test on MALME-3M melanoma.

For the molecule `CCCC(=O)OC1=C(c2ccccc2)Sc2ccccc2-n2cccc21`, the TGI in the test on TK-10 renal, with EKVX NSCLC, with NCI-H23 lung, in the test on RXF 393 renal, with SF-295 CNS and with HT29 colon was over 10 µM each time. The TGI in the test on SN12C renal, in the test on OVCAR-4 ovarian, in the test on PC-3 prostate, in the test with T-47D breast, in the test on SK-MEL-28 melanoma and with HCC-2998 colon was over 10 µM each time. The TGI with MALME-3M melanoma and with MDA-MB-435 was over 10 µM each time.

On to `O=c1[nH]c(Br)nc2c(N3CCCCC3)c[nH]c12`, for which the TGI in the test on TK-10 renal, in the test on EKVX NSCLC, in the test on SNB-19 CNS, in the test on NCI-H23 lung, in the test with RXF 393 renal and in the test with SF-295 CNS was over 100 µM throughout. For the same molecule, the TGI in the test on HT29 colon, in the test on OVCAR-5 ovarian, in the test with SN12C renal, with OVCAR-3 ovarian, with OVCAR-4 ovarian and in the test on SK-MEL-28 melanoma was over 100 µM in each case. In the test on MALME-3M melanoma, this molecule displayed a TGI of over 100 µM.

Take `COc1cccc(-c2cc(=O)c3cc(N4CCCC4)ccc3[nH]2)c1`: the TGI in the test with TK-10 renal was over 10 µM; in the test on NCI/ADR-RES ovarian, under 0.001 µM; in the test on EKVX NSCLC, over 10 µM; in the test on SNB-19 CNS it was under 0.001 µM; in the test with NCI-H23 lung, 0.0962 µM; in the test with SF-295 CNS it was under 0.001 µM. Moreover, the TGI is over 10 µM with OVCAR-5 ovarian; over 10 µM in the test with SN12C renal; under 0.001 µM in the test with OVCAR-3 ovarian; over 10 µM in the test on OVCAR-4 ovarian; over 10 µM in the test with PC-3 prostate; over 10 µM in the test with T-47D breast. For the same molecule, the TGI is over 10 µM in the test with SK-MEL-28 melanoma, 0.013 µM in the test on HCC-2998 colon, 9.53 µM in the test on MALME-3M melanoma and under 0.001 µM with MDA-MB-435.

As to `CCCC(=O)Oc1cc(OC(=O)CCC)c2c(C)cc(=O)oc2c1`, the TGI in the test with TK-10 renal, in the test on NCI/ADR-RES ovarian, in the test with EKVX NSCLC, with SNB-19 CNS, with NCI-H23 lung and in the test on SF-295 CNS was over 100 µM each time. For the same molecule, the TGI with HT29 colon, with OVCAR-5 ovarian, with SN12C renal, in the test on OVCAR-3 ovarian, with OVCAR-4 ovarian and in the test with PC-3 prostate was over 100 µM in each case. Also, the TGI in the test on SK-MEL-28 melanoma, with MALME-3M melanoma and in the test with MDA-MB-435 was over 100 µM each time.

As for `C#CC1(O)CC(c2ccccc2)N(C)C(c2ccccc2)C1` (stereo unspecified), the TGI in the test with TK-10 renal, with EKVX NSCLC, with SNB-19 CNS, with NCI-H23 lung, in the test on RXF 393 renal and in the test on SF-295 CNS was over 100 µM throughout. Moreover, the TGI in the test on HT29 colon, in the test with OVCAR-5 ovarian, in the test with SN12C renal, in the test on OVCAR-3 ovarian, in the test with OVCAR-4 ovarian and in the test on SK-MEL-28 melanoma was over 100 µM in each case. The TGI in the test with HCC-2998 colon and with MALME-3M melanoma was over 100 µM throughout.

For `OCC(O)C(O)C(C=NNc1ncnc2ccc(Br)cc12)=NNc1ncnc2ccc(Br)cc12` (stereo unspecified), the TGI was over 100 µM in the test on TK-10 renal; 20.9 µM and > 100 µM with EKVX NSCLC; over 100 µM in the test on SNB-19 CNS; 72.4 µM in the test on RXF 393 renal; over 100 µM with SF-295 CNS; over 100 µM with HT29 colon. Moreover, the TGI in the test with OVCAR-5 ovarian was 88 µM and > 100 µM; with SN12C renal it was over 100 µM; in the test on OVCAR-3 ovarian it was 28.2 µM and > 100 µM; with OVCAR-4 ovarian, 23.7 µM and > 100 µM; with PC-3 prostate it was 77.4 µM and > 100 µM; in the test on T-47D breast, 16.1 µM and > 100 µM. Also, the TGI with SK-MEL-28 melanoma was over 100 µM; in the test on MDA-MB-435 it was 76.9 µM and > 100 µM.

For `CC(C)=C=CC(C)(C)NS(=O)(=O)NC(C)(C)C=C=C(C)C`, the TGI with TK-10 renal, in the test with NCI/ADR-RES ovarian, in the test on EKVX NSCLC, in the test on SNB-19 CNS, in the test with NCI-H23 lung and with SF-295 CNS was over 100 µM in each case. Further, the TGI in the test with HT29 colon, with OVCAR-5 ovarian, in the test with SN12C renal, in the test on OVCAR-3 ovarian, with OVCAR-4 ovarian and with PC-3 prostate was over 100 µM each time. Also, the TGI with T-47D breast, with SK-MEL-28 melanoma, in the test with HCC-2998 colon, in the test with MALME-3M melanoma and in the test with MDA-MB-435 was over 100 µM in each case.

In the case of `Nc1nc2c(ncn2CC(CO)CC(c2ccccc2)P(=O)(O)O)c(=O)[nH]1` (stereo unspecified), the TGI with TK-10 renal, in the test with EKVX NSCLC, in the test on SNB-19 CNS, in the test on NCI-H23 lung, in the test on RXF 393 renal and with SF-295 CNS was over 100 µM in each case. Besides, the TGI in the test on HT29 colon, in the test on OVCAR-5 ovarian, in the test on SN12C renal, in the test with OVCAR-3 ovarian, in the test on SK-MEL-28 melanoma and in the test on HCC-2998 colon was over 100 µM each time. The molecule further gave a TGI in the test with MALME-3M melanoma of over 100 µM.

Take `COC1=CC(=O)C2C(C1=O)[C@@H]1c3ccccc3OC[C@H]21` (stereo partly specified): the TGI in the test on TK-10 renal, in the test on EKVX NSCLC, with SNB-19 CNS, in the test on NCI-H23 lung, in the test with RXF 393 renal and with SF-295 CNS was over 100 µM each time. In addition, the TGI in the test with HT29 colon, in the test on OVCAR-5 ovarian, in the test with OVCAR-3 ovarian, with OVCAR-4 ovarian, with SK-MEL-28 melanoma and in the test with HCC-2998 colon was over 100 µM in each case. This molecule had a TGI in the test with MALME-3M melanoma of over 100 µM.

With `C=[N+](CNC(=O)CNC(=O)C(Cc1ccccc1)NC(=O)OC(C)(C)C)C(=O)CNC(=O)C(Cc1ccccc1)NC(=O)OC(C)(C)C` (stereo unspecified), the TGI in the test on NCI/ADR-RES ovarian, in the test with EKVX NSCLC, in the test with SNB-19 CNS, with NCI-H23 lung, with RXF 393 renal and in the test on SF-295 CNS was over 100 µM each time. Also, the TGI in the test on HT29 colon, with OVCAR-5 ovarian, in the test on SN12C renal, with OVCAR-3 ovarian, in the test on OVCAR-4 ovarian and with PC-3 prostate was over 100 µM each time. In addition, the TGI in the test with T-47D breast, with SK-MEL-28 melanoma, with HCC-2998 colon, with MALME-3M melanoma and in the test on MDA-MB-435 was over 100 µM throughout.
